# Values quoted from earlier work, collected in patent publication US20010031747A1, “Progestin therapy for maintaining amenorrhea” (COLUMBIA LABORATORIES (BERMUDA) LIMITED, priority 1997, published 2001).
# Like-named read-outs stand apart in the source and are kept apart here.
# Key:
# [1] = intramuscular; 100 mg doses
# endometrium = details: topical application to the breast
# [2] = sublingual
# [3] = subdermal, six 100 mg pellets
# [4] = nasal
compound,measurement,setting,value
CC(=O)[C@H]1CC[C@H]2[C@@H]3CCC4=CC(=O)CC[C@]4(C)[C@H]3CC[C@]12C [progesterone],Time to achieve serum concentrations,[1],two to eight
same,Endometrial effects,endometrium,no significant endometrial effects
same,Time to return to basal levels,[2],twenty-four
same,Increase over baseline serum levels,"vaginal suspension 50 mg/ml (carboxymethyl cellulose, methyl cellulose), after 15 minutes",10 fold
same,Peak increase over baseline levels,"vaginal suspension 50 mg/ml, at peak",thirty- to forty
same,Serum level after decline,"vaginal suspension 50 mg/ml, declining over the next ten hours",3.68 ng/mL
same,Peak serum level,"vaginal suspension 50 mg/ml, maintained over the next seven hours",12.25 ng/mL
same,Mean peak progesterone level,[3]; six months after implantation,1.9 ng/mL
same,Peak progesterone level,[3]; within the first week after insertion,4.4 ng/mL
same,Mean maximum concentration,[4]; 20 mg dose,2.1 ng/mL
same,Time of mean maximum concentration,[4]; 20 mg dose,approximately 30 minutes
same,Mean maximum concentration,[4]; 30 mg dose,4.1 ng/mL
same,Time of mean maximum concentration,[4]; 30 mg dose,~240 min
